# Laboratory results: patent US20090042991A1, “Methods of increasing natural killer cell activity for therapy” (priority 2005, published 2009)
# Values joined by “and” are separate entries in the source; they are usually repeats but may differ in a detail not shown here. Equal values may be shown once. “Also recorded” adds a separate entry of the source.
# Key:
# [1] = system: NK cell activity; assay: NK cell cytotoxic activity of patient PBMC (K562/eGFP flow cytometry), lung carcinoma study; type: in vivo, human; conditions: for % tumor cell lysis post-dose / NK activity (change before and after dosing) / % tumor cell lysis pre-dose: Effector/Target 80:1; for % tumor cell lysis pre-dose: baseline before dosing
# Text: (§1) The following procedure can be employed to assay NK cell activity in a subject. The procedure is adapted from Kantakamalakul W, Jaroenpool J, Pattanapanyasat K. A novel enhanced green fluorescent protein (EGFP)-K562 flow cytometric method for measuring natural killer (NK) cell cytotoxic activity. J Immunol Methods. 2003 Jan. 15; 272:189-197, the entire teachings of which are incorporated herein by reference.
# (§2) Materials and methods: Human erythroleukaemic cell line, K562, was obtained from American Type Culture Collection (CCL-243, American Type Culture Collection, Manassas, Va.), and cultured in RPMI-1640 medium (Cat#1875-093Gibco Invitrogen Corp, Carlsbad, Calif.) supplemented with 10% heat inactivated fetal calf serum (Gibco), 2 mM L-glutamin, 100 μg/ml streptomycin and 100 IU/ml penicillin at 37° C. with 5% CO2. K562 cells were transduced with retroviral vector which encode green fluorescent protein (eGFP). Stable cell line was selected with antibiotic, G418.
# (§3) The subject's peripheral blood mononuclear cells (PBMCs) were prepared by clinical study sites and received in BD Vacutainer Cell Preparation Tube with sodium heparin (Product Number: 362753, Becton Dickinson, Franklin Lakes, N.J.).
# (§4) Effector cells alone and target cells alone were used as controls. All tubes were incubated at 37° C. with 5% CO2 for about 3.5 hr. Ten microliters of propidium iodide (PI) at a concentration of 1 mg/mL was added t each tube including effector and target control tubes and then incubated at room temperature for 15 min.
# (§5) Cytotoxic activity was analyzed with a FACSCalibur flow cytometer (Becton Dickinson). Linear amplification of the forward and side scatter (FSC/SSC) signals, as well as logarithmic amplification of eGFP and PI emission in green and red fluorescence were obtained. Ten thousand events per sample tube with no gating for acquisition were collected for analysis. Data analysis for two-parameter dot plots for eGFP versus PI was performed using CELLQuest (Becton Dickinson Biosciences) software to enumerate live and dead target cells. Debris and dead cells were excluded by setting a threshold of forward light scatter.
# Dosing was IV q 3 weeks for up to 6 cycles in the absence of dose-limiting toxicity or progression. […] The phase 2 primary endpoint is time to progression, with secondary endpoints of response rate, survival, and quality of life. Study pharmacodynamic parameters include NK cell activity and Hsp70 level.
# Best Response indicates an evaluation of the patient's tumor: PR=at least a 30% decrease in the sum of the longest diameters as compared to baseline, while SD indicates less than 20% of an increase and less than 30% of a decrease in the sum of the longest diameters as compared to baseline. […] NK Activity indicates the change in NK activity before and after dosing.
# [2] = system: NK cell activity; assay: NK cell cytotoxic activity of patient PBMC (K562/eGFP flow cytometry), melanoma study; type: in vivo, human; conditions: for % tumor cell lysis pre-dose: baseline before dosing
# Text: as §1, §2, §3, §4, §5
# (§6) The study will continue to Stage 2 if 7 or more patients have a response of stable disease or better, or at least 2 patients have a partial response or better. A safety assessment was performed with the first 6 patients enrolled as the weekly dose schedule had not previously been studied in humans. The primary endpoint is non-progression rate (NPR) at 3 months and response rate. Pharmacodynamic parameters include pre and post-dose NK cell activity in blood and when possible, tumor biopsies.
# (§7) Best Response indicates an evaluation of the patient's tumor: SD indicates less than 20% of an increase and less than 30% of a decrease in the sum of the longest diameters as compared to baseline; and PD=at least a 20% increase in the sum of the longest diameters as compared to baseline. NK Activity indicates the change in NK activity before and after dosing.
# [3] = system: advanced metastatic melanoma; assay: 2 stage Phase 2 study: tumor response with paclitaxel; type: in vivo, human; conditions: for Best Response cycle 2 week 4: one value per subject
# Protocol: as §6, with “The higher tolerated dose level was expanded to a total of 20 patients (Stage 1). The study” for “The study”, “tumor biopsies. […] Best Response indicates an evaluation of the patient's tumor: SD indicates less than 20% of an increase and less than 30% of a decrease in the sum of the longest diameters as compared to baseline; and PD=at least a 20% increase in the sum of the longest diameters as compared to baseline. NK Activity indicates the change in NK activity before and after dosing.” for “tumor biopsies.”
# [4] = system: NK cell activity; assay: NK cell cytotoxic activity of patient PBMC (K562/eGFP flow cytometry), sarcoma study; type: in vivo, human; conditions: for % tumor cell lysis post-dose / NK activity (change before and after dosing) / % tumor cell lysis pre-dose: Paclitaxel 80 + Cmpnd (1) 213 mg/M^2 weekly; for % tumor cell lysis pre-dose: baseline before dosing
# Text: as §1, §2, §3, §4, §5
# as §7, with “tumor: PR=at least a 30% decrease in the sum of the longest diameters as compared to baseline;” for “tumor:”
# [5] = Phase I trial: pharmacokinetics in plasma by LC/MS
# Protocol: Pharmacokinetic (PK) studies were performed during cycle 1 using liquid chromatography/mass spectrometry (LC/MS) to measure both compounds in plasma. Heat shock protein 70 (Hsp70) was measured in plasma before and after treatment.
# [6] = Paclitaxel 175 + Cmpnd (1) 233 mg/M^2 (carboplatin AUC 6), one value per subject
# [7] = Paclitaxel 200 + Cmpnd (1) 266 mg/M^2 (carboplatin AUC 6), one value per subject
# [8] = Paclitaxel 80 + Cmpnd (1) 106 mg/M^2 weekly, Effector/Target 80:1, one value per subject
# [9] = Paclitaxel 80 + Cmpnd (1) 213 mg/M^2 weekly, Effector/Target 80:1, one value per subject
# [10] = Paclitaxel 80 + Cmpnd (1) 213 mg/M^2 weekly, Effector/Target (40:1), subject 15
# [11] = Effector/Target 80:1, one value per subject
# [12] = Effector/Target (40:1), subject 30
structure (smiles),measurement,setting,value
CN(NC(=O)CC(=O)NN(C)C(=S)c1ccccc1)C(=S)c1ccccc1 [Compound (1)],% tumor cell lysis post-dose,[1]; [6],30.8% and 7.75% and 14.61% and 16.14% and 8.76% and 10.05%
same,NK activity (change before and after dosing),[1]; [6],increase; also recorded: no change
same,% tumor cell lysis post-dose,[1]; [7],5.5% and 7.81%
same,NK activity (change before and after dosing),[1]; [7],decrease; also recorded: increase
same,% tumor cell lysis pre-dose,[1]; [6],7.79% and 0.92% and 10.7% and 9.55% and 3.12% and 7.84%
same,% tumor cell lysis pre-dose,[1]; [7],8.4% and 3.59%
same,NK activity (change before and after dosing),"[1]; dose not printed (subjects 9-11), listed as Cmpnd (1)",increase; also recorded: decrease
same,patients with increased NK cell activity,"[1]; evaluable samples, assayed 7 days after the second dose",Seven of the 8
same,patients with increase in NK cell activity between pre- and post-dose,"[1]; of the 11 original patients, paired t-test p=0.06, not significant",8 patients
same,% tumor cell lysis post-dose,"[2]; Paclitaxel 80 + Cmpnd (1) 106 mg/M^2 weekly, 7 days after second dose, Effector/Target 80:1, one value per subject",7.74% and 2.43%
same,NK activity (change before and after dosing),[2]; [8],increase; also recorded: decrease
same,% tumor cell lysis post-dose,"[2]; Paclitaxel 80 + Cmpnd (1) 213 mg/M^2 weekly, 7 days after second dose, Effector/Target 80:1, one value per subject",10.77% and 19.78% and 26.52% and 8.64% and 18.77% and 5.2% and 26.31% and 7.2%
same,NK activity (change before and after dosing),[2]; [9],increase; also recorded: no change; also recorded: decrease
same,% tumor cell lysis post-dose,[2]; [10],10.01%
same,NK activity (change before and after dosing),[2]; [10],(increase)
same,% tumor cell lysis pre-dose,[2]; [8],2.32% and 6.13%
same,% tumor cell lysis pre-dose,[2]; [9],3.83% and 19.71% and 41.61% and 8.6% and 24.76% and 16.49% and 15.4% and 10.81%
same,% tumor cell lysis pre-dose,[2]; [10],3.5%
same,patients with statistically significant increase in NK cell activity pre- to post-dose,[2]; original patients of Table 3,four of the original patients
same,non-progression rate (NPR) at 3 months,"[3]; 20 evaluable patients, Stage 1",55%
same,Best Response cycle 2 week 4,[3]; Paclitaxel 80 + Cmpnd (1) 106 mg/M^2 weekly,SD (less than 20% of an increase and less than 30% of a decrease in the sum of the longest diameters as compared to baseline); also recorded: PD (at least a 20% increase in the sum of the longest diameters as compared to baseline)
same,Best Response cycle 2 week 4,[3]; Paclitaxel 80 + Cmpnd (1) 213 mg/M^2 weekly,SD (less than 20% of an increase and less than 30% of a decrease in the sum of the longest diameters as compared to baseline); also recorded: PD (at least a 20% increase in the sum of the longest diameters as compared to baseline)
same,patients stable at 3 months,"[3]; of 20 evaluable patients, Stage 1",11 patients
same,patients with at least a 20% increase in sum of longest diameters (PD),"[3]; patients completing the study (#12-#20, #22)",seven patients
same,% tumor cell lysis post-dose,"[4]; 7 days after second dose, Effector/Target 80:1, one value per subject",14.74% and 22.9% and 28.13% and 17.18% and 5.46% and 7.41% and 7.84% and 30.48% and 20.04% and 11.86%
same,NK activity (change before and after dosing),[4]; [11],decrease; also recorded: increase; also recorded: no change
same,% tumor cell lysis post-dose,[4]; [12],9.91%
same,NK activity (change before and after dosing),[4]; [12],no change
same,% tumor cell lysis pre-dose,[4]; [11],22.33% and 10.6% and 17.93% and 6.58% and 2.62% and 13.03% and 15.77% and 4.28% and 20.74% and 34.28%
same,% tumor cell lysis pre-dose,[4]; [12],9.88%
same,patients with decrease in NK cell activity pre- to post-dose,[4]; original patients of Table 4,four of the original patients
same,patients with statistically significant increase or no change in NK cell activity pre- to post-dose,[4]; original patients of Table 4,seven of the original patients
same,PK linearity,"[5]; Compound (1) 44-525 mg/m2, unaffected by paclitaxel dose",linear PK
same,terminal-phase half life,"[5]; human plasma, IV over 3 hours co-administered with paclitaxel, cycle 1",56.4 ± 13.8 min
